Test results published in article PMC9264404 (Toxicology and applied pharmacology, 2021).
Where two headings read alike, the source gives them in different places.

Assays:
[1] = Pharmacokinetics in mice after oral gavage of 15 mg/kg DBC; type: in vivo, female B6129SF1/J mice
[2] = Pharmacokinetics in human volunteers after oral microdose of 29 ng [14C]-DBC; type: in vivo
[3] = tested on: hepatic microsomes of mice; details: cited from earlier work
[4] = tested on: hepatic microsomes of humans; details: DBC metabolism, human hepatic microsomes, MM model; cited from earlier work
[5] = cited from earlier work
mice = details: cited from earlier work
[6] = average of human volunteers, 29 ng DBC oral
[7] = DBC metabolism, mouse hepatic microsomes, MM model

c1ccc2c(c1)cc1ccc3cccc4c5ccccc5c2c1c34 [DBC, dibenzo[def,p]chrysene]
Peak concentration in blood ([1]; 15 mg/kg DBC oral): around 3.5 μM
concentration in blood at 48 hr post dosing ([1]; 15 mg/kg DBC oral): approximately 0.0075 μM
levels detected in urine ([1]; 15 mg/kg DBC oral): trace levels
time of peak concentration in blood ([1]; 15 mg/kg DBC oral): 3 to 5 h
percent of administered dose absorbed (amount of dose recovered in urine) ([1]; 15 mg/kg oral, used as model parameter): 0.311
% Excreted ([2]; Average of volunteers, urine): 1.39%
peak concentration relative to peak DBC-11,12-diol concentration [2, 6]: 10 times
% Excreted ([2]; volunteer V5, urine): 2.11%
% Excreted ([2]; volunteer V6, urine): 1.48%
% Excreted ([2]; volunteer V8, urine): 1.20%
% Excreted ([2]; volunteer V9, urine): 0.70%
% Excreted ([2]; volunteer V10, urine): 1.93%
% Excreted ([2]; volunteer V13, urine): 0.92%
Km [3, 7]: 6.63 µM
Vmax [3, 7]: 19.38 nmol/min/mg
DBC metabolism rate, mice compared to humans ([3]; after scaling to body weight to the ¾ power): 3 fold
Km [4]: 0.915 µM
Vmax [4]: 0.27 nmol/min/mg
Peak concentration in blood [5, 6]: 74.8 fM
time of peak concentration in blood [5, 6]: around 1 hr
Eliminated Total (sum of all DBC metabolites excreted in urine) ([5]; volunteer V5, oral dose 25.2 ng): 0.532 ng 14C-DBCeq
Eliminated Total (sum of all DBC metabolites excreted in urine) ([5]; volunteer V6, oral dose 29.8 ng): 0.441 ng 14C-DBCeq
Eliminated Total (sum of all DBC metabolites excreted in urine) ([5]; volunteer V8, oral dose 23.9 ng): 0.285 ng 14C-DBCeq
Eliminated Total (sum of all DBC metabolites excreted in urine) ([5]; volunteer V9, oral dose 28.5 ng): 0.200 ng 14C-DBCeq
Eliminated Total (sum of all DBC metabolites excreted in urine) ([5]; volunteer V10, oral dose 25.6 ng): 0.494 ng 14C-DBCeq
Eliminated Total (sum of all DBC metabolites excreted in urine) ([5]; volunteer V13, oral dose 28.5 ng): 0.263 ng 14C-DBCeq
Peak concentration in blood ([5]; volunteers 8 and 9 (both), 29 ng DBC oral): ~ 100 fM
time of peak concentration in blood ([5]; volunteers 8 and 9, 29 ng DBC oral): 1 to 2 h
transplacental carcinogenicity (mice; B6129F1/J mice, offspring of mothers exposed to DBC): cause T-cell lymphoma, lung adenoma and liver lesions in offspring
potency in producing lung adenomas relative to benzo[a]pyrene (B[a]P) (mice): 100 times
tumors after intraperitoneal exposure (mice; mice exposed intraperitoneally): lung and liver cancer
tumors after dermal exposure (mice; mice, dermal exposure): cause skin tumors
tumors after intramammary exposure (mice; mice, intramammary exposure): promote mammary tumors

Oc1c(O)c(O)c2c(cc3ccc4cccc5c6ccccc6c2c3c45)c1O [DBC-tetrols, dibenzo[def,p]chrysene-11,12,13,14-tetraol]
mean amount in urine relative to conjugated DBC-11,12-diol ([1]; 15 mg/kg DBC oral, 0–16 hr collection interval): 98.9 times
